Calls of active or inactive are those of the source. No cut-off for these calls is given here.
Legend:
Phospholipase A2 [1] = target: T1, Phospholipase A2 (Homo sapiens, UniProt P04054); experiment: Inhibition of PLA2
Target sequence in this assay (P04054 whole entry): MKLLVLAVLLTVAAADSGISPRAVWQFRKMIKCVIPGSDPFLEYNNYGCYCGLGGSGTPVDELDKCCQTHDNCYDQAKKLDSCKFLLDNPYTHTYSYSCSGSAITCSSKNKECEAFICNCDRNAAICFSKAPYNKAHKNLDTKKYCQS

P388 = experiment: Cytotoxicity against mouse P388 cells; type: functional, cell-based
DLD-1 = experiment: Cytotoxicity against human DLD1 cells; type: functional, cell-based
Phospholipase A2 [2] = target: T1, Phospholipase A2; experiment: Inhibition of PLA2 at 100 uM
Target sequence in this assay (P04054 23-148 limits assumed): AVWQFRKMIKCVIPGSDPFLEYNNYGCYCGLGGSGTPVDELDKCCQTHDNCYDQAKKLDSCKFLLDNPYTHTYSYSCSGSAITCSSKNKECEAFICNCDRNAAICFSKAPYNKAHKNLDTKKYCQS

SMILES | IC50 (Phospholipase A2 [1]) [µM] | IC50 (P388) [µM] | IC50 (DLD-1) [µM] | Activity (Phospholipase A2 [2])
CC(C)/C=C/[C@@H](C)[C@H]1CC[C@@H]2[C@]1(C)CC[C@H]1[C@@]23O[C@@H]3[C@H](O)[C@@]2(O)C[C@@H](O)CC[C@]12C | 21.5 | 28.7 | 24.6 | 
CC(=O)O[C@H]1CC[C@]2(C)[C@H]3CC[C@]4(C)[C@@H]([C@H](C)/C=C/CC(C)C)CC[C@H]4[C@]34O[C@@H]4[C@H](OC(C)=O)[C@@]2(O)C1 |  | 11.6 | 12.6 | inactive
CC(C)CCC[C@@H](C)[C@H]1CC[C@@H]2[C@]1(C)CC[C@H]1[C@@]23O[C@@H]3[C@H](O)[C@@]2(O)C[C@@H](O)CC[C@]12C | 13.8 | 17.9 | 19.6 | 
CC(C)C(C)/C=C/[C@@H](C)[C@H]1CC[C@@H]2[C@]1(C)CC[C@H]1[C@@]23O[C@@H]3[C@H](O)[C@@]2(O)C[C@@H](O)CC[C@]12C (some centres not stated) |  | 20.2 | 22.4 | inactive
